# Patent publication US20080003215A1, “Use of pre-dissolved pristinamycin-type and polyether ionophore type antimicrobial agents in the production of ethanol” (priority 2006, published 2008)
# Like-named read-outs stand apart in the source and are kept apart here.
# Experiments:
# L. plantarum = assay: Development of resistance test (10 week duration); assay type: cell-based; details: 10 week duration of the test
# From the text: One very effective control program involves the introduction of pristinamycin-type antimicrobial agents, and particularly virginiamycin, to the process. […] Usually, the “waste” byproduct, known as “Dried Distillers Grains with Solubles (DDGS), is sold as animal feed, going 45% to dairy, 35% to beef, 15% to swine, and 5% to poultry industries. This is an important factor in the profitability of an ethanol production process, and the total amount of this byproduct produced per year is on the order of 3.5 million metric tons per year. The presence of residual antimicrobial agents in this material can adversely affect the value of this byproduct, as small residual amounts of antimicrobial agents in feed will promote the development of agent-resistant microorganisms. We have tested DDGS samples from 8 major ethanol producers using virginiamycin to control microorganisms and found no detectable amount of virginiamycin in the DDGS (<1 ppm via the validated Eurofins analysis and <1 ppb via an unvalidated experimental analytical procedure). […] Generally, however, the virginiamycin in mash is destroyed by drying so virginiamycin must be re-added to the feed if so desired. Other effective control agents include polyether ionophore-type antimicrobial agents, which provide many of the benefits obtained with pristinamycin-type antimicrobial agents. […]
# [1] = cited from earlier work
# [2] = tested on: consortium of 6 Lactobacilli spp cultures; assay: Corn mash fermentation without yeast, inoculated with Lactobacillus consortium, well-mixed or poorly-mixed fermentors; assay type: cell-based, Lactobacillus sp
# From the text: The purpose of this experiment is to determine the efficacy of virginiamycin in three forms (DMSO-solubilized virginiamycin, Belgium powdered virginiamycin, and Brazilian powdered virginiamycin) in real corn mash fermentations against a consortium of Lactobacillus sp bacteria. No yeasts will be added. The efficacy of these forms of virginiamycin will be further tested in fermentors that will be properly (continuously) mixed and in fermentors that have improper mixing—simulating more closely the fermentor mixing conditions seen in field ethanol plants.
# The first step in testing was the preparation of corn mash (i.e., Gelatinization, Liquefaction, and Saccharification). […]
# The mash temperature was then decreased to 60° C. at which point 2 L water and 200 ml G-Zyme™ 480 Ethanol glucoamylase (available from Genencor, Rochester, N.Y.) were added. […] No bacterial contamination was detected in any test incubated mashes.
# For each 7.6 L sterile container of mash, a 60 g aliquot was removed and divided into two 30 g sub-samples within 50 ml centrifuge tubes. […] The specific gravity of each subsample was then determined using a digital density meter (DMA-45; Anton Paar KG, Graz, Austria) which was temperature regulated to 4° C. If the readings on the density meter were off-scale, then a precise dilution of the subsamples were done and then re-read in the density meter. […]
# [3] = Solubility of virginiamycin in several solvents (applicant's determination); assay type: physicochemical
# Method: The solubility of virginiamycin in several solvents were determined. Each of these solvents can be useful in solubilized organic liquid comprising antimicrobial material, an emulsion of the same in water, or in both. […] Such a solution is stable, pumpable, and useful not only for treatments of ethanol-producing facilities but for a number of other uses where virginiamycin is used.
# [4] = solvent: 50% NMP/50% Ethyl lactate
substance,measurement,setting,value
virginiamycin,Time until L. plantarum developed resistance,L. plantarum,no development of resistance
same,"Solubility (literature data, ""virginiamycin-type"" compounds)",[1]; solvent: 1% ethanol in water,0.002 mg/mL
same,"Solubility (literature data, ""virginiamycin-type"" compounds)",[1]; solvent: DMSO,> 100 mg/mL
same,"Solubility (literature data, ""virginiamycin-type"" compounds)","[1]; solvent: acetone, disproportionate solubilities for Type A and Type B",~190 mg/mL
same,"Solubility (literature data, ""virginiamycin-type"" compounds)",[1]; solvent: amylacetate,> 4 mg/mL
same,"Solubility (literature data, ""virginiamycin-type"" compounds)",[1]; solvent: benzene,> 3 mg/mL
same,"Solubility (literature data, ""virginiamycin-type"" compounds)",[1]; solvent: butanol,> 10 mg/mL
same,"Solubility (literature data, ""virginiamycin-type"" compounds)",[1]; solvent: carbon tetrachloride,0.02 mg/mL
same,"Solubility (literature data, ""virginiamycin-type"" compounds)",[1]; solvent: chloroform,150 mg/mL
same,"Solubility (literature data, ""virginiamycin-type"" compounds)",[1]; solvent: dimethylformamide,200 mg/mL
same,Virginiamycin that can be dissolved (literature data),[1]; solvent: dimethylformamide,200 grams
same,Virginiamycin that can be dissolved (literature data),[1]; solvent: dimethylsulfoxide,200 grams
same,"Solubility (literature data, ""virginiamycin-type"" compounds)",[1]; solvent: dioxane,130 mg/mL
same,"Solubility (literature data, ""virginiamycin-type"" compounds)",[1]; solvent: ethanol,70 mg/mL
same,"Solubility (literature data, ""virginiamycin-type"" compounds)","[1]; solvent: ether, disproportionate solubilities for Type A and Type B",11 mg/mL
same,"Solubility (literature data, ""virginiamycin-type"" compounds)","[1]; solvent: ethyl acetate, disproportionate solubilities for Type A and Type B",~205 mg/mL
same,"Solubility (literature data, ""virginiamycin-type"" compounds)",[1]; solvent: hexane,0.2 mg/mL
same,"Solubility (literature data, ""virginiamycin-type"" compounds)",[1]; solvent: isopropanol,> 10 mg/mL
same,"Solubility (literature data, ""virginiamycin-type"" compounds)",[1]; solvent: methanol,25 mg/mL
same,"Solubility (literature data, ""virginiamycin-type"" compounds)",[1]; solvent: methylethylketone,35 mg/mL
same,"Solubility (literature data, ""virginiamycin-type"" compounds)","[1]; solvent: toluene, disproportionate solubilities for Type A and Type B",82 mg/mL
same,"Solubility (literature data, ""virginiamycin-type"" compounds)",[1]; solvent: water,0.0002 mg/mL
same,Solubility in water,"[1]; water, background statement",0.0001 grams/l
same,Lactobacilli killed,"[2]; pre-solubilized agent, within 6 hours",at least 90%
same,Lactobacillus count,"[2]; well mixed fermentors (150 RPM), 1 ppm virginiamycin, inoculum 5E5 CFU/ml, up to 48 h",≤ 1 E6 CFU/ml
same,Concentration that can be dissolved,"[3]; ethanol with water, at least 75% by weight ethanol (balance water)",~70000 µg/mL
same,Virginiamycin solubility in grams per liter of solvent,[3]; solvent: 2-ethyl hexyl lactate,24 grams per liter
same,Virginiamycin solubility in grams per liter of solvent,"[3]; solvent: 2-ethyl hexyl lactate, listed as Virginiamycin",˜24 grams per liter
same,Virginiamycin solubility in grams per liter of solvent,[3]; solvent: 50% NMP/50% DMSO,˜335 grams per liter
same,Gel formation of virginiamycin solution,[3]; [4],forms a hard gel at 280
same,Virginiamycin solubility in grams per liter of solvent,[3]; [4],<200 grams per liter
same,Virginiamycin solubility in grams per liter of solvent,[3]; solvent: 70% ethanol/30% water,˜70 grams per liter
same,Virginiamycin solubility in grams per liter of solvent,[3]; solvent: Dimethylsulfoxide (DMSO),˜270 grams per liter
same,Virginiamycin solubility in grams per liter of solvent,[3]; solvent: Ethyl lactate,about 92 grams per liter
same,Virginiamycin solubility in grams per liter of solvent,"[3]; solvent: Ethyl lactate, listed as Virginiamycin",˜92 grams per liter
same,Virginiamycin solubility in grams per liter of solvent,[3]; solvent: Methyl soyate ester,<1 gram per liter
same,Virginiamycin solubility in grams per liter of solvent,"[3]; solvent: N,N-dimethylcapramide",˜70 grams per liter
same,Virginiamycin solubility in grams per liter of solvent,[3]; solvent: N-methylpyrrolidone (NMP),˜260 grams per liter
same,Amount of virginiamycin dissolved per liter,"[3]; solvent: NMP, over a short period of time",about 290 grams per liter
same,Virginiamycin solubility in grams per liter of solvent,[3]; solvent: tetrahydrofurfuryl alcohol,<160 grams per liter
